Measured values reported in ChEMBL document CHEMBL1201862, “PubChem BioAssay data set” (2004).
Active and inactive are the calls of the source.

Assays:
[1] = microbe, parasite or virus in culture; format: functional; conditions: Mycobacterium tuberculosis
[2] = target: Nuclear receptor subfamily 5 group A member 2 (Homo sapiens, UniProt O00482); format: functional, cell-based;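 further: HEK293T cells transfected with LRH-1 and a StAR promoter luciferase reporter; potency for inhibitors that lower LRH-1 driven reporter light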
Nuclear receptor subfamily 5 group A member 2, sequence (O00482 whole entry): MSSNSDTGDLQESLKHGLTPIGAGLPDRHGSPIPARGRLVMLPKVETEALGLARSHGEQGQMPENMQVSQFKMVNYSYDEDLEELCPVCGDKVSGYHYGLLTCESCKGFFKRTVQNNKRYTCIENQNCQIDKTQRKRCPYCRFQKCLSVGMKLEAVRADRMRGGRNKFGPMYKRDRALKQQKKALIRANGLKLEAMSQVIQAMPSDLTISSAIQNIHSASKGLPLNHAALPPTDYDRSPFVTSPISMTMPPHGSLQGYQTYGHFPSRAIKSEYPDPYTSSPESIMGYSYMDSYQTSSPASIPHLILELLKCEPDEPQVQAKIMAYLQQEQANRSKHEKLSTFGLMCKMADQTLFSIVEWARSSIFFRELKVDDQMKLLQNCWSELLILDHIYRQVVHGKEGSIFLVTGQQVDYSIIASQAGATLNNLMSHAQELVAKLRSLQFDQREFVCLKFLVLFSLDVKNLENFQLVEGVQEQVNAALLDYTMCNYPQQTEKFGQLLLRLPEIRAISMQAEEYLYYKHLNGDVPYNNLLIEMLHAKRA

[3] = nonselective StAR promoter luciferase inhibitors – cell-based, luminescence, luciferase reporter, counter-screen for LRH-1 inverse agonist project, dose response (AID 651969); format: functional
Steroidogenic factor 1 = Steroidogenic factor 1 (Homo sapiens, UniProt Q13285); assay: Counterscreen for inverse agonists of the liver receptor homolog-1 (LRH-1; NR5A2): Luminescence-based cell-based high throughput dose response assay to identify inverse agonists of the Steroidogenic Factor 1 Nuclear Receptor (SF1; NR5A1).; format: functional
Steroidogenic factor 1, sequence (Q13285 whole entry): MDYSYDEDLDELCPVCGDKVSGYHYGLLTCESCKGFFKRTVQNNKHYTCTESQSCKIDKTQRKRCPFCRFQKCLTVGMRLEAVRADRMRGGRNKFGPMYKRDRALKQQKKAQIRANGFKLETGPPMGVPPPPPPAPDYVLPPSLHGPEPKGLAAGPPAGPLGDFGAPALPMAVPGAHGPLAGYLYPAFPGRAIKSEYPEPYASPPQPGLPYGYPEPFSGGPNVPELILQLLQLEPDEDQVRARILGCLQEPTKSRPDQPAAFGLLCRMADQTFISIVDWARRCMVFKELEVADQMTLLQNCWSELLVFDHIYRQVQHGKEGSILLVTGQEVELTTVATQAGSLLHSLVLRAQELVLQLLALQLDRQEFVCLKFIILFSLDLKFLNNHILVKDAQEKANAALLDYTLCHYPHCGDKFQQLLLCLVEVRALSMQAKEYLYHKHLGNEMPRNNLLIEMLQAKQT

[4] = target: T1, DNA repair and recombination protein RAD54-like (Homo sapiens, UniProt Q92698); assay: RAD54 Holliday junction migration blockers – biochemical, fluorescence, cherry-picked samples, dose series, confirmation (AID 651657); format: functional
T1 sequence (Q92698 whole entry): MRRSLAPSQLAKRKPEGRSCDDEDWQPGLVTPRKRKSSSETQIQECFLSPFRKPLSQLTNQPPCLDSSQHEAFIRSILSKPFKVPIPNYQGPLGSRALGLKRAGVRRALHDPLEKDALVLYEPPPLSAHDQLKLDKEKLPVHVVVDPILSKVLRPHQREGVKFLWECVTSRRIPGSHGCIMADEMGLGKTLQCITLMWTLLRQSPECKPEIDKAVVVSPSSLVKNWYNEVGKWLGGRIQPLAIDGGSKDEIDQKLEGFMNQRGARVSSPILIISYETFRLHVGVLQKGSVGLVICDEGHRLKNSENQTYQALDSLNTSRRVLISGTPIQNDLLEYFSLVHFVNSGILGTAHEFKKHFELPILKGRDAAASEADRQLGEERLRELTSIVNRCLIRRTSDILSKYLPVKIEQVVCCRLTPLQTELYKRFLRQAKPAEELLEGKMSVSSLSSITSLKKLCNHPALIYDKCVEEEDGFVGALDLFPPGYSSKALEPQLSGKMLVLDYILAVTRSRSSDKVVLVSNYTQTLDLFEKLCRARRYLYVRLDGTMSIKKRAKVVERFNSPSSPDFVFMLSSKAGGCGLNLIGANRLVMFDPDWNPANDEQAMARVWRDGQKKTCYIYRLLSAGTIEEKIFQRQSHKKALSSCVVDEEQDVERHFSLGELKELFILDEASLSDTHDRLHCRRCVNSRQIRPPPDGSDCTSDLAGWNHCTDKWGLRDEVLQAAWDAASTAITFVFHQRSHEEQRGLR

[5] = target: T2, Corticotropin-releasing factor receptor 2/Corticotropin-releasing factor-binding protein (Homo sapiens, UniProt P24387+Q13324); assay: activators of CRF receptor 2 with binding protein – uHTS hits, confirmation (AID 602473); format: functional; conditions: read-out: EC50_Mean
T2 sequence (Q13324 whole entry): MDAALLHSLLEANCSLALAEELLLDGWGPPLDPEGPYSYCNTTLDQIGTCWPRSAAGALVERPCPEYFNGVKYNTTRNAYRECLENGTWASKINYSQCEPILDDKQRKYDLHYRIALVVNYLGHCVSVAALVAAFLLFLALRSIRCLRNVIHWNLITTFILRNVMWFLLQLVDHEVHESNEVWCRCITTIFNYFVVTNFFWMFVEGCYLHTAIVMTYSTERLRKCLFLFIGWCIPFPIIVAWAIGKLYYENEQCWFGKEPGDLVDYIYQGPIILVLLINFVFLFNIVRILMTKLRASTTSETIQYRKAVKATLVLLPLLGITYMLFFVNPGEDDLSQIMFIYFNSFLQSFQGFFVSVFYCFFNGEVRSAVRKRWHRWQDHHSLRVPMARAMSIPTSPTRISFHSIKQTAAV
T2 sequence (P24387 whole entry): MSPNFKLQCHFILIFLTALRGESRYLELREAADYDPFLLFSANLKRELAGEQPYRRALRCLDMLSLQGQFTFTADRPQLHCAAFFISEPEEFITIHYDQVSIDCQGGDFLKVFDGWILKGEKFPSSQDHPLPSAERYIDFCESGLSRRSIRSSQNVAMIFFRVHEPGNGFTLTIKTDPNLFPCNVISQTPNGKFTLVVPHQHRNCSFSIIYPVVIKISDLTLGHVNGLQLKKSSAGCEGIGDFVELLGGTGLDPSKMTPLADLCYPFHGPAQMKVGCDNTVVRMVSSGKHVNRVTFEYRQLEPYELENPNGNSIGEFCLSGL

[6] = target: T2, Corticotropin-releasing factor receptor 2/Corticotropin-releasing factor-binding protein; assay: Dose Response confirmation of uHTS hits for small molecule antagonists of the CRF-binding protein and CRF-R2 receptor complex.; format: functional; conditions: read-out: IC50_Mean
[7] = blockers of CRF-binding protein–CRF-R2 complex – cell-based, uHTS hits, 384-well, dose response (AID 651639); format: functional, Homo sapiens; conditions: read-out: IC50_Mean
HEK293 [8] = assay: membrane integrity loss in HEK cells – cell-based, fluorescence, cytotoxicity control for IDE activator project, dose response (AID 588440); format: functional; conditions: Homo sapiens;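 further: cytotoxicity by LDH release measuring loss of membrane integrity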
[9] = Luminescence Cell-Based Dose Response HTS to Identify Inhibitors of 5'UTR Stem-Loop Driven Prion Protein mRNA Translation in H4 Neuroglioblastoma Cells. [Related pubchem assays: 1827 (Project Summary), 1813 (Primary HTS)]; format: functional
Insulin-degrading enzyme [10] = target: T3, Insulin-degrading enzyme (Homo sapiens, UniProt P14735); assay: cellular IDE activation of Abeta substrate cleavage – fluorescence polarization, HEK cells, dose response (AID 588439); format: functional, cell-based
T3 sequence (P14735 whole entry): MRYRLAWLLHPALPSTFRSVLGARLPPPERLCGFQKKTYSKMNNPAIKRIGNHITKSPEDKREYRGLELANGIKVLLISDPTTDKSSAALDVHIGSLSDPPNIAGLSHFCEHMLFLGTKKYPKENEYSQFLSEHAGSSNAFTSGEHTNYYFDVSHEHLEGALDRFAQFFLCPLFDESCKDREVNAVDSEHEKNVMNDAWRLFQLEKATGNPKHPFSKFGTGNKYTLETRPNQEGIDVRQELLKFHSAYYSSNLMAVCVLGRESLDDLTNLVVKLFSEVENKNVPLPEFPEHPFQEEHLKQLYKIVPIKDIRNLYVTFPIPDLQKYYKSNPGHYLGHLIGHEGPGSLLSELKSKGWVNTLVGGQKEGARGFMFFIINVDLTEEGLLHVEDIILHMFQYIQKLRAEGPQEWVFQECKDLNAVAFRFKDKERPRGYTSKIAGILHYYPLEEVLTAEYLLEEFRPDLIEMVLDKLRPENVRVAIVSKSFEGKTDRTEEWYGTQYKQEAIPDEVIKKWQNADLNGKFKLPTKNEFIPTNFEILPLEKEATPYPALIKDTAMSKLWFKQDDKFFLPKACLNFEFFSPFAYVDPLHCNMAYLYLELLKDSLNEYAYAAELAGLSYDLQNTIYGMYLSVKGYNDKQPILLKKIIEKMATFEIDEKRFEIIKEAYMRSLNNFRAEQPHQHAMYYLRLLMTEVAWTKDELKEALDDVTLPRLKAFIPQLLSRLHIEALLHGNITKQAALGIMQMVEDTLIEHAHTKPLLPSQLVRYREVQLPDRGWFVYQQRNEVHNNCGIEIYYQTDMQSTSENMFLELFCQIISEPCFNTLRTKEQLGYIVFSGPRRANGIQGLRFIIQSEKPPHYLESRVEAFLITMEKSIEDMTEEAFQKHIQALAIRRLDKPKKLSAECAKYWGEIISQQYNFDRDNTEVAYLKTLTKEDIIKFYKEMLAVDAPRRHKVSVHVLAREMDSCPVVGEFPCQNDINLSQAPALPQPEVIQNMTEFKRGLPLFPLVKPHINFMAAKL

Insulin-degrading enzyme [11] = target: T3, Insulin-degrading enzyme; assay: recombinant IDE activation, cell-free – biochemical, fluorescence polarization, counter-screen for IDE activator project, dose response (AID 588681)
[12] = HEK-293T viability loss after treatment – luminescence, T-cell screen hits, cytotoxicity control for TCR NF-kB inhibitor project, dose response (AID 489026); format: functional, cell-based;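 further: cells exposed to compound about 14 hours before the viability readout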
HEK293 [13] = assay: optical interference in Abeta FP readout, dose response, artefact control for IDE activator project, biochemical, fluorescence polarization (AID 588442); format: functional, cell-based; conditions: Homo sapiens
[14] = alpha-synuclein stem-loop luciferase translation blockers – H4 neuroglioma cells, luminescence, confirmation (AID 1988); format: functional, cell-based
[15] = viability of uninfected HEp-2 cells – cell-based, HTS, cytotoxicity control for RSV inhibitor project, dose response (AID 2410); format: functional; conditions: human respiratory syncytial virus
[16] = target: T4, DNA repair protein RAD52 homolog (Homo sapiens, UniProt P43351); format: functional, biochemical
T4 sequence (P43351 whole entry): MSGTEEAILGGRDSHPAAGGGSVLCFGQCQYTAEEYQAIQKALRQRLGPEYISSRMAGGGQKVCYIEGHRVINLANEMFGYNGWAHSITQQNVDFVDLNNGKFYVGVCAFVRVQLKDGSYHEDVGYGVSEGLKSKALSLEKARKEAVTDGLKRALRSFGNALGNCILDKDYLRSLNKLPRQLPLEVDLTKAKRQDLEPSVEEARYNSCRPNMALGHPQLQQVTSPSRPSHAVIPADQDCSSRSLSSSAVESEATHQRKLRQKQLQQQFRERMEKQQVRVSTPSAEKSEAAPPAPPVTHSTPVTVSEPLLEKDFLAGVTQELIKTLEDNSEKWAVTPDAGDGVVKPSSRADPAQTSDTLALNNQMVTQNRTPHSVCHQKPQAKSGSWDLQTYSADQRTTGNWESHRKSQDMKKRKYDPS

[17] = target: Heat shock protein HSP 90-alpha (Homo sapiens, UniProt P07900); format: functional, organism-based
[18] = target: T5, Sentrin-specific protease 8 (Homo sapiens, UniProt Q96LD8); format: functional
T5 sequence (Q96LD8 whole entry): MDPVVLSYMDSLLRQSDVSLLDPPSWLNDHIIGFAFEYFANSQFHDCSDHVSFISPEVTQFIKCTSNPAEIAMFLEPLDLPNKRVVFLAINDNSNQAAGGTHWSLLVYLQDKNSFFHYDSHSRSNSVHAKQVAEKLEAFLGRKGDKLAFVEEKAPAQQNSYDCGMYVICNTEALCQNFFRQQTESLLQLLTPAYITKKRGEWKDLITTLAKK

[19] = target: T5, Sentrin-specific protease 8; format: functional; remark: listed apart in the source
[20] = intracellular Trypanosoma cruzi inhibitors in host cells – cell-based, plate reader, cherry-pick samples, set 3, dose response (AID 651818); format: functional;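 further: compounds incubated with infected cells for about four days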

## COc1ccccc1NC(=O)c1ccc(NC(=O)CSc2nnnn2C)cc1
[1]
  CC50: > 40 µM (active)
[2]
  IC50: 0.437 µM (active)
[3]
  IC50: 35.9 µM (inactive)
Steroidogenic factor 1
  IC50: 0.77 µM (active)

## CN(C)CCCNc1nc(-c2ccc(Cl)cc2)nc2ccccc12
[4]
  AC50: 22.5 µM (active)

## O=C(c1ccco1)N1N=C(c2cccs2)CC1c1ccccc1O (stereo not drawn)
[5]
  EC50: > 53 µM (inactive)
[6]
  IC50: 6.11 µM (active)
[7]
  IC50: 12.8 µM (active)

## COc1cc(NC(=O)N2CCNC2=O)cc(C(=O)Nc2cccc(C(F)(F)F)c2)c1
HEK293 [8]
  IC50: > 89.2 µM (inactive)
[9]
  EC50: 9.79 µM (active)
Insulin-degrading enzyme [10]
  EC50: > 54.7 µM (inactive)
Insulin-degrading enzyme [11]
  EC50: > 54.7 µM (inactive)
[12]
  IC50: > 80 µM (inactive)
HEK293 [13]
  EC50: > 54.7 µM (inactive)
[14]
  EC50: 6.31 µM (active)

## Cc1ccc(O)c(NC(=S)NC(=O)COc2ccc(Br)cc2)c1
HEK293 [8]
  IC50: 10.7 µM (inactive)
[5]
  EC50: 7 µM (active)
Insulin-degrading enzyme [10]
  EC50: > 54.7 µM (inactive)
Insulin-degrading enzyme [11]
  EC50: > 54.7 µM (inactive)
HEK293 [13]
  EC50: > 55.9 µM (inactive)

## NC(CO)c1cn([C@@H](CCC(=O)O)C(=O)N2CCNCC2)nn1 (stereo partly drawn)
HEK293 [8]
  IC50: > 89.2 µM (inactive)
Insulin-degrading enzyme [10]
  EC50: > 54.7 µM (inactive)
Insulin-degrading enzyme [11]
  EC50: > 54.7 µM (inactive)
HEK293 [13]
  EC50: > 55.9 µM (inactive)

## Nc1c(C(=O)CSc2nc3ccccc3o2)c(=O)[nH]c(=O)n1C1CC1
HEK293 [8]
  IC50: > 89.2 µM (inactive)
Insulin-degrading enzyme [10]
  EC50: > 54.7 µM (inactive)
Insulin-degrading enzyme [11]
  EC50: > 54.7 µM (inactive)
HEK293 [13]
  EC50: > 54.7 µM (inactive)
[15]
  CC50: 26.3 µM (active)

## COc1cc2nc3c(O)n(CCN(C(C)C)C(C)C)cnc-3c2cc1OC
[4]
  AC50: 47.7 µM (active)

## O=C(c1ccc([N+](=O)[O-])cc1)N(Cc1ccccc1)Cc1ccccc1
[5]
  EC50: > 53 µM (inactive)
[6]
  IC50: 8.56 µM (active)
[7]
  IC50: > 20 µM (inactive)

## COc1cc(OC)cc(C(=O)N[C@H](C(=O)OCC(=O)Nc2ccc3c(c2)OCO3)C(C)C)c1
[2]
  IC50: 4.71 µM (active)
[3]
  IC50: 35.9 µM (inactive)
Steroidogenic factor 1
  IC50: 5.72 µM (active)

## CCCCCCCCCCCCCCCC[n+]1ccccc1
[16]
  AC50: 5.71 µM (active)
[17]
  AC50: 2.73 µM (active)

## COc1ccc(CCNC(=O)COC(=O)Cc2ccccc2[N+](=O)[O-])cc1
[2]
  IC50: 35.9 µM (inactive)
[3]
  IC50: 35.9 µM (inactive)
Steroidogenic factor 1
  IC50: 2.36 µM (active)

## O=C(Nc1c(-c2ccccc2)n[nH]c1O)c1cccc(C(F)(F)F)c1
[18]
  IC50: 65.3 µM (inactive)
[19]
  IC50: 87.3 µM (inactive)

## C[C@@H]1CN([C@H](C)CO)C(=O)Cc2cc(N(C)C)ccc2O[C@H]1CN(C)Cc1ccc(C(=O)Nc2ccccc2N)cc1
[20]
  AC50: 3.46 µM (active)

## C[C@@H]1CN([C@H](C)CO)C(=O)Cc2cc(NC(=O)C3CCCCC3)ccc2O[C@@H]1CN(C)Cc1ccc(Cl)c(Cl)c1
[20]
  AC50: 2.15 µM (active)

## C[C@H](CO)N1C[C@H](C)[C@H](CN(C)Cc2ccc(-c3ccccc3)cc2)Oc2ccc(NC(=O)Cc3cn(C)c4ccccc34)cc2C1=O
[20]
  AC50: 15 µM (active)

## O=C(COC(=O)c1ccc([N+](=O)[O-])o1)NC12CC3CC(CC(C3)C1)C2
[18]
  IC50: 6.85 µM (active)
[19]
  IC50: 5.13 µM (active)
